PubChem BioAssay (NCI)
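Method: 48-hour compound exposure of cells in 96-well plates, five concentrations, linear interpolation of endpoints. The concentration for 50% growth inhibition is given as GI50. TGI is the concentration that stops growth completely.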

Assays:
Assay in all cases: DTP human tumour cell line panel, 48 h
[1] = tested on: MOLT-4 leukemia
[2] = tested on: T-47D breast
[3] = tested on: RPMI-8226 leukemia
[4] = tested on: MDA-MB-231 breast
[5] = tested on: SN12C renal
[6] = tested on: PC-3 prostate
[7] = tested on: UACC-257 melanoma
[8] = tested on: SK-MEL-28 melanoma
[9] = tested on: HCC-2998 colon
[10] = tested on: MDA-MB-435
[11] = tested on: DU-145 prostate
[12] = tested on: EKVX NSCLC
[13] = tested on: SNB-19 CNS
[14] = tested on: OVCAR-8 ovarian
[15] = tested on: UACC-62 melanoma
[16] = tested on: SF-268 CNS
[17] = tested on: NCI/ADR-RES ovarian
[18] = tested on: NCI-H226 lung
[19] = tested on: SNB-75 CNS
[20] = tested on: MCF7 breast
[21] = tested on: 786-0 renal
[22] = tested on: NCI-H23 lung
[23] = tested on: BT-549 breast
[24] = tested on: RXF 393 renal
[25] = tested on: HCT-15 colon
[26] = tested on: NCI-H460 lung
[27] = tested on: SW-620 colon
[28] = tested on: HOP-62 NSCLC
[29] = tested on: HOP-92 NSCLC
[30] = tested on: M14 melanoma
[31] = tested on: HCT-116 colon
[32] = tested on: NCI-H522 lung
[33] = tested on: A498 renal
[34] = tested on: MALME-3M melanoma
[35] = tested on: SK-MEL-5 melanoma
[36] = tested on: SF-295 CNS
[37] = tested on: CAKI-1 renal
[38] = tested on: CCRF-CEM leukemia
[39] = tested on: K-562 leukemia
[40] = tested on: KM12 colon
[41] = tested on: OVCAR-5 ovarian
[42] = tested on: SF-539 CNS
[43] = tested on: HS 578T breast
[44] = tested on: LOX IMVI melanoma
[45] = tested on: SR leukemia
[46] = tested on: HT29 colon
[47] = tested on: SK-MEL-2 melanoma
[48] = tested on: TK-10 renal
[49] = tested on: U251 CNS
[50] = tested on: A549 NSCLC
[51] = tested on: HL-60(TB) leukemia
[52] = tested on: IGROV1 ovarian
[53] = tested on: COLO 205 colon
[54] = tested on: OVCAR-4 ovarian
[55] = tested on: SK-OV-3 ovarian

For `COc1ccc(-c2nnc(SCc3ccc(O)c4ncccc34)n2-c2ccccc2)cc1`, the GI50 [1] was 0.508 µM, the TGI [1] was over 100 µM and the GI50 [2] was 0.929 µM. The TGI [2] was 4.2 µM, the GI50 [3] was 0.493 µM and the TGI [3] was over 100 µM. For the same molecule, the GI50 [4] was 0.922 µM, the TGI [4] was 26.7 µM and the GI50 [5] was 0.468 µM. The TGI [5] was over 100 µM, the GI50 [6] was 0.526 µM and the TGI [6] was 28.3 µM. For the same molecule, the GI50 [7] was 1.02 µM, the TGI [7] was 10.7 µM and the GI50 [8] was 0.726 µM. It also gave a TGI [8] of 31.3 µM, a GI50 [9] of 1.19 µM and a TGI [9] of over 100 µM. For the same molecule, the GI50 [10] was 0.468 µM, the TGI [10] was over 100 µM and the GI50 [11] was 0.637 µM. It also gave a TGI [11] of over 53.5 µM, a GI50 [12] of 1.05 µM and a TGI [12] of 10.3 µM. For the same molecule, the GI50 [13] was 0.553 µM, the TGI [13] was over 40.9 µM and the GI50 [14] was 0.447 µM. The TGI [14] was 96.9 µM, the GI50 [15] was 1.31 µM and the TGI [15] was 4.98 µM. It also gave a GI50 [16] of 0.605 µM, a TGI [16] of 56.6 µM and a GI50 [17] of 0.29 µM. For the same molecule, the TGI [17] was 5.7 µM, the GI50 [18] was 2.46 µM and the TGI [18] was 98 µM. It also gave a GI50 [19] of 0.951 µM, a TGI [19] of 6.13 µM and a GI50 [20] of 0.395 µM. The TGI [20] was over 100 µM, the GI50 [21] was 0.891 µM and the TGI [21] was 9.81 µM. For the same molecule, the GI50 [22] was 0.661 µM, the TGI [22] was 30.4 µM and the GI50 [23] was 0.572 µM. It also gave a TGI [23] of 17 µM, a GI50 [24] of 0.915 µM and a TGI [24] of 11.1 µM. For the same molecule, the GI50 [25] was 0.328 µM, the TGI [25] was over 100 µM and the GI50 [26] was 0.385 µM. It also gave a TGI [26] of 3.31 µM, a GI50 [27] of 0.438 µM and a TGI [27] of over 100 µM. The GI50 [28] was 1 µM, the TGI [28] was 16.7 µM and the GI50 [29] was 0.231 µM. It also gave a TGI [29] of 0.818 µM, a GI50 [30] of 0.451 µM and a TGI [30] of 2.5 µM. The GI50 [31] was 0.361 µM, the TGI [31] was 5.4 µM and the GI50 [32] was 0.479 µM. The TGI [32] was 11.1 µM, the GI50 [33] was 2.23 µM and the TGI [33] was 12.5 µM. It also gave a GI50 [34] of 0.968 µM, a TGI [34] of 5.21 µM and a GI50 [35] of 0.72 µM. It also gave a TGI [35] of 3.56 µM, a GI50 [36] of 0.449 µM and a TGI [36] of 6.84 µM. The GI50 [37] was 0.637 µM, the TGI [37] was 4.29 µM and the GI50 [38] was 0.424 µM. For the same molecule, the TGI [38] was over 100 µM, the GI50 [39] was 0.37 µM and the TGI [39] was over 100 µM. It also gave a GI50 [40] of 0.619 µM, a TGI [40] of over 89 µM and a GI50 [41] of 3.96 µM. The TGI [41] was over 100 µM, the GI50 [42] was 0.605 µM and the TGI [42] was 5.04 µM. For the same molecule, the GI50 [43] was 0.491 µM, the TGI [43] was 10 µM and the GI50 [44] was 0.478 µM. The TGI [44] was 2.62 µM, the GI50 [45] was 0.371 µM and the TGI [45] was over 100 µM. The GI50 [46] was 4.9 µM, the TGI [46] was over 100 µM and the GI50 [47] was 1.16 µM. For the same molecule, the TGI [47] was 6.71 µM, the GI50 [48] was 0.87 µM and the TGI [48] was 7.51 µM. The GI50 [49] was 0.389 µM, the TGI [49] was 13.8 µM and the GI50 [50] was 0.986 µM. It also gave a TGI [50] of over 60 µM, a GI50 [51] of 0.397 µM and a TGI [51] of 3.41 µM. It also gave a GI50 [52] of 0.892 µM, a TGI [52] of 25 µM and a GI50 [53] of 6.71 µM. It also gave a TGI [53] of over 100 µM, a GI50 [54] of 0.739 µM and a TGI [54] of over 100 µM. It also gave a GI50 [55] of 0.745 µM and a TGI [55] of 9.23 µM.
